Test results: paper PMC8979514 (Journal of Enzyme Inhibition and Medicinal Chemistry, 2022)
Read-outs that look alike come from different tables or passages of the source.

Assays:
in vitro [1] = type: cell-based, human; conditions: human
Experimental: (§1) Human neuroblastoma SH-SY5Y and human liver hepatocellular HepG2 cell lines were purchased from the American Type Culture Collections (ATCC). SH-SY5Y cells were cultured in a Dulbecco’s Modified Eagle Medium (DMEM) supplemented with Ham F12 medium (ratio 1:1), whereas HepG2 cells in Eagle’s Minimum Essential Medium (EMEM). Additionally, all culture medium was supplemented with 10% foetal bovine serum (FBS), streptomycin (100 µg/mL) and penicillin (100 U/mL). The cells were seeded into flasks containing supplemented medium and maintained in a humidified atmosphere of 5% CO2 and 95% air at 37 °C. The cell viability assay was performed in confluence of the cells in serum free medium (without FBS) was 80–90%.
(§2) […]. SH-SY5Y cells and HepG2 cells were seeded on 96-well plate with a density of 27–29 × 10^3 cells/well and 12–14 × 10^3/well respectively. […]. The DMSO concentration of every well in final dilutions was equal to or less than 0.1%. After incubation with compounds, MTT was added and 2 h later, the absorbance was measured at 492 nm. The result was expressed as the percentage of control cells (cultured in serum-free medium containing 0.1% of DMSO) which was set to 100%. The MTT test was performed in three independent replications. Data analysis was performed by using GraphPad Prism 5.0 Software.
(§3) SH-SY5Y a standard cell line used for determining neurocytotoxic effect of potential drug. Moreover it is well-established in vitro model of neurodegenerative disorders. […].

in vitro [2] = type: cell-based, human; conditions: human; remark: listed apart in the source
Experimental: as §1, §2
(§4) . HepG2 is a commonly used in vitro model for the investigation of hepatocytotoxic effect of xenobiotics [40]^,[41]. In our study, we evaluated the toxicity of our new analogs against […]. […]

[3] = cited from earlier work
[4] = biological target: T1, Acetylcholinesterase (eeAChE, E.C. 3.1.1.7) (Electrophorus electricus, UniProt O42275); assay: biochemical; type: biochemical, electric eel; conditions: for IC50: eeAChE; for Selectivity IC50(eeAChE)/ IC50(BChE): ratio of IC50 values
T1 construct: purchased Sigma Aldrich
T1 sequence (O42275 24-633): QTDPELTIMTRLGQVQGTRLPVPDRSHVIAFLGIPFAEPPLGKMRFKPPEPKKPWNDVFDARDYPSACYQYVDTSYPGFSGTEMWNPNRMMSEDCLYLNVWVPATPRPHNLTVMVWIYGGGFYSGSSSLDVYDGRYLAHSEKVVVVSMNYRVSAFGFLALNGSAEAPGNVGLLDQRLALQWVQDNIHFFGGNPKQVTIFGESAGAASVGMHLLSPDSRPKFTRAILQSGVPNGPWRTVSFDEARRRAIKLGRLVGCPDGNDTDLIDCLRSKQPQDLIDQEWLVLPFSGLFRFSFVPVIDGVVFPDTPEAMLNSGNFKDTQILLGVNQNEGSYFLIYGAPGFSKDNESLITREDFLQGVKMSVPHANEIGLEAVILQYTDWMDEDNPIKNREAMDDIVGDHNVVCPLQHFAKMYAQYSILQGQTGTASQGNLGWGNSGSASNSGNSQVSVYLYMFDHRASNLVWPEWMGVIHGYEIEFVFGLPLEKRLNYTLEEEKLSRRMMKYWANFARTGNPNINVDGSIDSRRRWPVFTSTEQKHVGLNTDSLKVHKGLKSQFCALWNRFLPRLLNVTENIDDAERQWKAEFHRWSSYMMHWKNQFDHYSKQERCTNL
Experimental: (§5) [33] Inhibitory activity was tested at room temperature on 96-well plate using Ellman’s method. Lyophilised powders of AChE and BChE were dissolved in phosphate buffer (pH 7.5, 0.1 M) with 1% BSA.
(§6) Each well was filled to a total volume of 330 µL. The content inculded 285 µL of phosphate buffer, 5 µL 2 units/mL of eeAChE/BChE, 10 µL 0.01 M of DTNB, 10 µl of tested compound (for the control wells 10 µL of the phosphate buffer instead of tested compound) and 20 µL (7.5 mM) ATCh/BTCh. The hydrolysis of ATCh/BTCh was initiated by adding it to the well directly before the measurement. The absorbance was recorded at 1 min intervals for 8 min in total. The percent of inhibition was calculated by nonlinear regression analysis of the response–concentration (log) curve as a percentage of the reaction rate of the tested compounds over the control. Data analysis was performed by using GraphPad Prism 5.0 Software to give the IC50 values. The experiment was carried out in triplicate.

[5] = biological target: T2, butyrylcholinesterase (BChE, E.C. 3.1.1.8) (Equus caballus, UniProt P81908); assay: biochemical; set-up: species or system equine serum; conditions: BChE from equine serum
T2 construct: purchased Sigma Aldrich
T2 sequence (P81908 whole entry): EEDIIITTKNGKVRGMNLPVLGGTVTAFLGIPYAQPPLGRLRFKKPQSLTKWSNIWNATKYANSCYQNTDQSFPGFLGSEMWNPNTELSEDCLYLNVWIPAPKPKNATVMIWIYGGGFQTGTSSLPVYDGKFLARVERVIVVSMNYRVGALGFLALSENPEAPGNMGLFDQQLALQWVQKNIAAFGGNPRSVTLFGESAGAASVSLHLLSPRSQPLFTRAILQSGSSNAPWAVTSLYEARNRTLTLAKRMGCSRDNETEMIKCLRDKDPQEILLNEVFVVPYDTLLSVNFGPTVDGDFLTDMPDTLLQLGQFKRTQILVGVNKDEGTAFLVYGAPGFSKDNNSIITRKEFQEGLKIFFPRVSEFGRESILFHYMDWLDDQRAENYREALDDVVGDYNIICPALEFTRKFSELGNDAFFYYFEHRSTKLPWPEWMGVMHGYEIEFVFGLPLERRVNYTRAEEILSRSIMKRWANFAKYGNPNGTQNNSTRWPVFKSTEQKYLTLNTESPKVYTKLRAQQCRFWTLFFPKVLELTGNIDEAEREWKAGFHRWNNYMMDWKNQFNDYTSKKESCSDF
Experimental: as §5, §6

SH-SY5Y cells = assay: in vitro; type: cell-based, human; conditions: 100 µM, 24 h incubation, MTT, mean ± SD
Experimental: as §1, §2, §3

HepG2 cells = assay: in vitro; type: cell-based, human; conditions: HepG2 cells
Experimental: as §1, §2, §4

[6] = Cells viability of SH-SY5Y cell line (% of control)
[7] = Ellman's method, phosphate buffer pH 7.5, room temperature, read-out: IC50 AChE
[8] = value in brackets under the IC50, read-out: pIC50 ± S.E.M. AChE (converted)
[9] = Ellman's method, phosphate buffer pH 7.5, room temperature, read-out: IC50 BChE
[10] = value in brackets under the IC50, read-out: pIC50 ± S.E.M. BChE (converted)
[11] = 12.5 µM, 24 h incubation, MTT, mean ± SD, read-out: Cells viability of SH-SY5Y cell line (% of control)
[12] = 50 µM, 24 h incubation, MTT, mean ± SD, read-out: Cells viability of SH-SY5Y cell line (% of control)
[13] = 100 µM, 24 h incubation, MTT, mean ± SD, read-out: Cells viability of SH-SY5Y cell line (% of control)
[14] = MTT, 24 h incubation, read-out: Cytotoxicity on HepG2 cells IC50
[15] = IC50 AChE, Ellman's method, phosphate buffer pH 7.5, room temperature
[16] = pIC50 ± S.E.M. AChE, value in brackets under the IC50
[17] = IC50 BChE, Ellman's method, phosphate buffer pH 7.5, room temperature
[18] = pIC50 ± S.E.M. BChE, value in brackets under the IC50

SMILES	IC50 [4, 7] [nM]	IC50 [4, 8] [nM]	Selectivity IC50(eeAChE)/ IC50(BChE) [4]	IC50 [5, 9] [nM]	IC50 [5, 10] [nM]	viability at 12.5 µM (in vitro [1]; [11]) [%]	viability at 50 µM (in vitro [1]; [12]) [%]	viability at 100 µM (in vitro [1]; [13]) [%]	IC50 (in vitro [2]; [14]) [nM]	further results
Nc1c2c(nc3ccccc13)CCCC2 [Tacrine, 9-amino-1,2,3,4-tetrahydroacridine, reference compound]	–	–	–	–	–	–	–	–	–	viability at 12.5 µM (in vitro [1]; [6]): 98.7 ± 4.5%; viability at 50 µM (in vitro [1]; [6]): 97.2 ± 2.1%; viability at 100 µM (in vitro [1]; [6]): 68.9 ± 2.9%; IC50 (in vitro [2]): 190000 nM; bioavailability of the oral formulation [3]: 9.9–36.4%
O=P(NCCCCCCNc1c2c(nc3ccccc13)CCCC2)(Oc1ccccc1)Oc1ccccc1 [Compound 7, Diphenyl(6-((1,2,3,4-tetrahydroacridin-9-yl)amino)hexyl)phosphoramidate]	125	125	3.04	41.1	41.1	47.4 ± 1.2	41.3 ± 1.5	30.1 ± 5	14600	–
CCCCOP(=O)(OCCCC)OCCCNc1c2c(nc3ccccc13)CCCC2 [Compound 17, Dibutyl(3-((1,2,3,4-tetrahydroacridin-9-yl)amino)propyl)phosphate]	–	–	3.78	–	–	–	–	–	–	IC50 [4, 15]: 110 nM; IC50 [4, 16]: 110 nM; IC50 [5, 17]: 29.1 nM; IC50 [5, 18]: 29.1 nM; viability at 24 h, 12.5 µM (in vitro [1]; [11]): 94.4 ± 5.1%; viability at 24 h, 50 µM (in vitro [1]; [12]): 67.7 ± 14.7%; viability at 24 h, 100 µM (in vitro [1]; [13]): 63.2 ± 12.2%; IC50 at 24 h (in vitro [2]; [14]): 72300 nM
CCOP(=O)(OCC)OCCNCCNc1c2c(nc3ccccc13)CCCC2 [Compound 19, Diethyl(2-((2-((1,2,3,4-tetrahydroacridin-9-yl)amino)ethyl)amino)ethyl)phosphate]	677	676	6.08	111	112	85.5 ± 12.6	82.6 ± 3.2	81.1	> 600000	Cells viability of SH-SY5Y cell line (% of control) (SH-SY5Y cells): 81.12 ± 5.0 % of control; hepatocytotoxicity in MTT assay (in words) (HepG2 cells): lack of hepatocytotoxicity
CCOP(=O)(OCC)OCCCNc1c2c(nc3ccccc13)CCCC2 [Compound 16, Diethyl(3-((1,2,3,4-tetrahydroacridin-9-yl)amino)propyl)phosphate]	246	245	14.36	17.1	17.1	88.1 ± 7.8	80 ± 7.7	83.5	114000	Cells viability of SH-SY5Y cell line (% of control) (SH-SY5Y cells): 83.47 ± 8.6 % of control
CCCCOP(=O)(NCCCCCCCCCCCCNc1c2c(nc3ccccc13)CCCC2)OCCCC [Compound 12, Dibutyl(12-((1,2,3,4-tetrahydroacridin-9-yl)amino)dodecyl)phosphoramidate]	–	–	0.27	–	–	–	–	–	–	IC50 [4, 15]: 16.3 nM; IC50 [4, 16]: 16.3 nM; IC50 [5, 17]: 61.2 nM; IC50 [5, 18]: 61.2 nM; viability at 24 h, 12.5 µM (in vitro [1]; [11]): 69.3 ± 3.7%; viability at 24 h, 50 µM (in vitro [1]; [12]): 52.1 ± 3.1%; viability at 24 h, 100 µM (in vitro [1]; [13]): 53.5 ± 5.8%; IC50 at 24 h (in vitro [2]; [14]): 20800 nM
O=P(NCCCCCCCCNc1c2c(nc3ccccc13)CCCC2)(Oc1ccccc1)Oc1ccccc1 [Compound 10, Diphenyl(8-((1,2,3,4-tetrahydroacridin-9-yl)amino)octyl)phosphoramidate]	44.2	44.3	0.24	188	188	80.1 ± 16.8	63.7 ± 5.7	48.1 ± 8.1	7150	–
